Results published in PubChem BioAssay (NCI).
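All cell lines were grown in 96-well plates and treated with compound for 48 hours. Here, GI50 denotes the concentration required for 50% inhibition of growth. TGI: total growth inhibition.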

What was measured:
Assay in all cases: NCI-60 cell line screen, 48 h
[1] = system: U251 CNS
[2] = system: SF-268 CNS
[3] = system: RXF 393 renal
[4] = system: A549 NSCLC
[5] = system: HCC-2998 colon
[6] = system: UO-31 renal
[7] = system: HT29 colon
[8] = system: RPMI-8226 leukemia

Compound | GI50 [1] [µM] | TGI [1] [µM] | GI50 [2] [µM] | TGI [2] [µM] | GI50 [3] [µM] | TGI [3] [µM] | GI50 [4] [µM] | TGI [4] [µM] | GI50 [5] [µM] | TGI [5] [µM] | GI50 [6] [µM] | TGI [6] [µM] | GI50 [7] [µM] | TGI [7] [µM] | GI50 [8] [µM] | TGI [8] [µM]
CC(=O)[CH-]C(C)=O.CC(=O)[CH-]C(C)=O.CC[O-].CC[O-].[Ti+4] | > 100 | > 100 | > 100 | > 100 | > 100 | > 100 | > 100 | > 100 | > 100 | > 100 | > 100 | > 100 | > 100 | > 100 | > 100 | > 100
Cn1c(=O)c2/c(n(C)c1=O)=N\C=c1\c(=O)n(C)c(=O)n(C)\c1=N\C=2 | – | > 100 | – | > 100 | – | > 100 | – | > 100 | – | > 100 | – | > 100 | – | > 100 | – | –
Cc1cccc2c(O)cc(=O)oc12 | – | > 100 | – | > 100 | – | > 100 | – | > 100 | – | – | – | > 100 | – | > 100 | – | > 100
O=[N+]([O-])c1ccc(C=NC23CC4CC(CC(C4)C2)C3)cc1 | – | > 100 | – | > 100 | – | > 100 | – | – | – | > 100 | – | > 100 | – | > 100 | – | > 100
CN1C/C(=C\C=C\c2ccccc2)C(=O)/C(=C/C=C/c2ccccc2)C1 | – | > 100 | – | > 100 | – | > 100 | – | > 100 | – | > 100 | – | > 100 | – | > 100 | – | > 100
O=S1Nc2c(Cl)cc(Cl)c(Cl)c2S1 (stereo not drawn) | – | > 100 | – | > 100 | – | > 100 | – | > 100 | – | > 100 | – | > 100 | – | > 100 | – | > 100
CCc1cccc(C)c1NC(=O)CC1C(=O)Nc2ccccc2S1(=O)=O (stereo not drawn) | – | 32.5 | – | 39.4 | – | 40.4 | – | 35.2 | – | 30.4 | – | 27.7 | – | 36.4 | – | 40.4
O=c1oc2ccccc2c(O)c1C(C/C(CCN1CCCC1)=N\Nc1ccccc1)c1ccccc1 (stereo not drawn) | – | > 100 | – | > 100 | – | 93 | – | > 100 | – | > 100 | – | > 100 | – | > 100 | – | 77.7
COC(=O)c1nn(C(=N)c2ccc(Cl)cc2)c2c1CCC2 | – | > 100 | – | > 100 | – | > 100 | – | > 100 | – | > 100 | – | > 100 | – | > 100 | – | > 100
OCCN1CCN(CC/C=C2/c3ccccc3Sc3ccc(Cl)cc32)CC1 | – | 25.6 | – | 28.3 | – | 26.5 | – | 29.9 | – | 23.5 | – | 27.3 | – | 6.9 | – | 31.2
C[C@]12CCC(=O)C=C1CC[C@@H]1C2CC[C@]2(C)c3nn(-c4ccccc4)nc3CC12 (stereo partly drawn) | – | > 100 | – | > 100 | – | > 100 | – | > 100 | – | > 100 | – | > 100 | – | > 100 | – | > 100
CC(=O)[CH-]C(=O)c1ccccc1.CC(=O)[CH-]C(=O)c1ccccc1.CC[O-].O=C1c2ccccc2C(=O)c2c1ccc(O)c2[O-].[Ti+4] | – | > 100 | – | > 100 | – | – | – | > 100 | – | > 100 | – | 86.9 | – | > 100 | – | 64.7
CN(C)CC/C(=N\Nc1ccc(Cl)cc1Cl)c1ccccc1 | – | 24.8 | – | – | – | 20.6 | – | 29.6 | – | – | – | 10.5 | – | 28.9 | – | 17.1
CCCCCCCCCCC(C)CCCCCCC(=O)O (stereo not drawn) | – | > 100 | – | > 100 | – | > 100 | – | > 100 | – | > 100 | – | > 100 | – | > 100 | – | > 100
C/C=N\N1C(=O)c2ccccc2C1=O | – | – | – | > 100 | – | > 100 | – | > 100 | – | > 100 | – | > 100 | – | > 100 | – | > 100
CCN(CC)CCNC(=O)c1cccc2nc3ccccc3nc12 | – | > 79.6 | – | 36.9 | – | 28.2 | – | > 89.1 | – | 52 | – | > 71.7 | – | 28.3 | – | > 100
N.N.O=P([O-])([O-])C1(P(=O)([O-])[O-])CCCCCN1.[Pt+2] | 43.5 | > 100 | 76.6 | > 100 | 42.3 | > 100 | > 100 | > 100 | > 100 | > 100 | > 100 | > 100 | > 100 | > 100 | > 100 | > 100
NNC(=O)C(=O)N/N=C(\CCC(=O)Nc1ccc(Cl)cc1)Cc1nc2ccccc2s1 | – | > 100 | – | > 100 | – | > 100 | – | > 100 | – | > 100 | – | > 100 | – | > 100 | – | > 100
